The test system of one series is hPSCs. The series can be described thus: hPSC viability after SCD1 inhibitors with or without oleic acid. It is filed as cell-based, human. The following applies: 75 nM inhibitor, 100 μM oleic acid, 48 hours. Here is the method: (§1) In order to determine whether hPSC viability indeed depends on functional SCD1 activity, hPSCs were exposed to 75 nM of the specific SCD1 inhibitors A939572 and CAY-10566 for 48 hours. Some samples were supplemented with 100 μM oleic acid in order to evaluate the effect of exogenous supplementation of oleic acid (a product of SCD1 activity) on cell death.

Test in series [1]: as above
Type of series: cell-based, human. The following applies: human, human pluripotent stem cells (hPSCs), 75 nM, read-out: decrease in viability of hPSCs. The method, then:
as §1

A further series has as its target T1, SCD1 (Homo sapiens, UniProt O00767).
T1 sequence (O00767 1-359): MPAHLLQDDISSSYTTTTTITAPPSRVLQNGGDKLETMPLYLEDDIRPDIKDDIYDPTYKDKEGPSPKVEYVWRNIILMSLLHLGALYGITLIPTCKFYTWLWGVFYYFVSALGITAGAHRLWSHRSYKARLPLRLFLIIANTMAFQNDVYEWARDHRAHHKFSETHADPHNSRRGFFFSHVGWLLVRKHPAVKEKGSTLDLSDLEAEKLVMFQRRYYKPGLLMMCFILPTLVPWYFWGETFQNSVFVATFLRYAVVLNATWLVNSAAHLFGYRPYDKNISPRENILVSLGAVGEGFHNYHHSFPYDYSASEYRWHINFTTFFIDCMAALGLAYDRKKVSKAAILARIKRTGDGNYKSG
As to the kind of experiment: SCD1 activity measurement ([1-14C] stearic acid pulse-chase labeling). It is filed as cell-based. On the set-up: PluriSIn #1 decreased SCD1 activity by approximately 65% decrease in ES cells; endogenous in cells; host or cells: human embryonic stem cells (H9, printed '1-19'). The following applies: 20 μM, 12 hours. The method, then: Cells were plated in 6-well plates at a density of 50,000 to 100,000 cells per well. 24 hours later, 20 μM of PluriSIn #1 (isonicotinic acid N′-phenylhydrazide) or 0.2% DMSO (control) were added to the cells. After 12 hours of incubation at 37° C., under 5% CO2, the old medium was removed, cells were washed with PBS, and new medium containing 2.3 μM of 0.75 μCi of [1-^14C] stearic acid was added. The cells were then incubated for up to 4 hours at 37° C., under 5% CO2.
After the incubation period, the medium was discarded and the cells were washed 3 times with 2 ml of PBS. 2 ml of an n-hexane:isopropanol mixture (3:2 v:v) were added, and the cells were then incubated for 30 minutes at a temperature of 37° C., under 5% CO2. […] The free fatty acids were detected by ultraviolet illumination after spraying the TLC with a 2′,7′-dichlorofluorescein solution. The spots corresponding to stearic and oleic acid were scraped and the radioactivity counted in a Packard Tri-Carb® 1600TR scintillating counter. SCD1 desaturase activity was calculated from the percent conversion of substrate to product and the conversion to picomoles per minute per 10^6 cells. […]
In order to directly examine whether PluriSin #1 inhibits SCD activity, and whether this inhibition is restricted to pluripotent cells, SCD1 activity was measured by a pulse-chase labeling assay, as described in the Materials and Methods section. […]

For series [2], the system named is non-pluripotent cell types (BJ-fibroblasts, HeLa, HepG2 and Kelly cells). As to the kind of experiment: Methylene blue viability of non-pluripotent cells in embryonic stem cell medium. The following applies: 20 μM, 72 hours. It is filed as cell-based, human. The method, then:
For the high-throughput screens, relative cell number was determined using a CellTiter-Glo® Luminescent Cell Viability Assay as described hereinabove. Otherwise, relative cell numbers were determined by fixating the cells with 0.5% glutardialdehyde and staining with methylene blue dissolved in 0.1 M boric acid (pH 8.5). Color extraction was performed using 0.1 M hydrochloric acid, and the staining (which is proportional to cell number) was quantified by measuring absorbance at a wavelength of 650 nm.
In order to ascertain that the selectivity of PluriSin cytotoxicity is cell type-dependent rather than cell medium-dependent, four non-pluripotent cell types (BJ-fibroblasts, HeLa, HepG2 and Kelly cells) were cultured in human embryonic stem cell medium and exposed to PluriSIn #1 for 72 hours. Cell viability was then determined by a methylene blue assay, as described hereinabove.

Consider `CNC(=O)c1cccc(NC(=O)N2CCC(Oc3ccccc3Cl)CC2)c1` [A939572, 4-(2-chlorophenoxy)-N-(3-(methylcarbamoyl)-phenyl)piperidine-1-carboxamide, reference compound], for which the “rescue from SCD1 inhibitor-induced cell death by oleic acid” value in the series on hPSCs is reported as “completely rescued”. Further, in series [1], the cytotoxicity at 48 h, 75 nM was above 80%.

Turning to `O=C(NNc1ccccc1)c1ccncc1` [PluriSIn #1, isonicotinic acid N′-phenylhydrazide], the “decrease in SCD1 activity in ES cells” value on SCD1 was “approximately 65%”. In series [2], the “viability of non-pluripotent cells cultured in embryonic stem cell medium” value was “no effect”.

(Values after patent US20180153830A1, “SELECTIVE INHIBITORS OF UNDIFFERENTIATED CELLS” (Yissum Research Development Company of the Hebrew …, priority 2012, published 2018).)
